Like-named read-outs stand apart in the source and are kept apart here.

The values below come from US20070207957A1, “Composition For Accelerating Alcohol Metabolism Or Relieving Fatigue By Gluconeogenesis” (Kirin Beer Kabushiki Kaisha, priority 2004, published 2007).

Data set [1] is described as follows: Blood glucose level in rats after caffeine administration. To be noted: 100 mg/kg body weight caffeine orally, plasma two hours later, vs water control.
Data set [2] can be described thus: Ethanol metabolism in human (ND), sample intake before ethanol: blood levels. The data set is classed as in vivo. To be noted: for blood ethanol level: human ALDH2*1/2 (ND), 3 mg/kg caffeine and/or 30 mg/kg serine orally 1 h before 0.4 g/kg ethanol, 30-180 minutes, vs control; for blood acetaldehyde level: human ND, 3 mg/kg caffeine and/or 30 mg/kg serine 1 h before 0.4 g/kg ethanol. On the procedure: The subjects were asked to have no food and water from wake-up time to participate in the test. A control test was performed by 8 persons (as volunteers). Of the 8 persons participated in the control test, 5 persons were chosen to perform a sample administration test. […] . One hour after the sample intake, 5% ethanol solution (white liquor diluted with water) was divided into 6 portions and orally taken 6 times at the intervals of 4 minutes so as to take 0.4 g ethanol per a body weight (kg). Blood was taken immediately before alcohol drinking, 30, 60, 90, 120, and 180 minutes after alcohol drinking. Immediately upon taking blood, blood was mixed with a solution containing 0.6N perchlorate and 0.9% NaCl, and centrifugally separated at 3000 rpm for 20 minutes to remove protein. The ethanol, acetaldehyde and acetate concentrations of the supernatant were measured by gas chromatography manufactured by Perkin Elmer Corporation or Shimazu Corporation (Eriksson C J P et al., Anal. Biochem. Vol. 125, 259-263 (1982)). […] Furthermore, using the same plasma, blood lactate and pyruvate levels were measured by use of determiner LA (Kyowa Medics, Tokyo, Japan) and determiner PA (Kyowa Medics), respectively. Based on the ratio of lactate/pyruvate, the ratio of NADH/NAD^+ was calculated. On the other hand, at the same time of taking blood, 9-rank subjective evaluation was performed by the subjects with respect to “feeling of drunk” (by scores 0 to 8) and comfortable feeling (uncomfortable (score −4) to comfortable (score 4)).

For data set [3], the system named is serine dehydratase (SDS). Put plainly: Liver mRNA expression after caffeine administration (RT-PCR), SDS. To be noted: rats, 100 mg/kg caffeine orally, two hours, corrected on housekeeping gene P0.
For data set [4] the following is noted: rats; 20 mg/kg caffeine and/or 0.1 g/kg tryptophan 1 h before ethanol; blood two hours after ethanol.
Experimental: One hour later, ethanol was administered. After further two hours, blood was taken from the aorta abdominalis under anesthesia with pentobarbital (Sigma).
Data set [5] in a line: Recovery from hypoglycemia at the time of fatigue (swimming mice). The class given is in vivo, Balb/c mice. To be noted: exhausted mice; 80 mg/kg caffeine and/or 200 mg/kg serine orally; vs water control. The protocol: A swimming experiment of male Balb/c mice (Japan SLC) was performed under flowing water by use of a flowing-water vessel (developed by Matsumoto in Kyoto University). The mice (4 weeks old) were allowed to swim once in two different days at a flow rate of about 4.5 L/min (about 16 cm/sec) for 15 to 20 minutes to allow the mice to get use to the swimming environment. On the next week, these mice (5 weeks old) were fasted for 3 hours. After that, blood was taken from the tail and blood glucose level was measured by GLUTESTACE (Sanwa Kagaku Kenkyusho Co., Ltd.). Immediately after this, the mice were allowed to swim at a flow rate of about 5.5 L/min (about 19 cm/sec), in an intermittent manner. Intermittent swim was performed repeating a cycle consisting of 10-minute swim and 10-minute rest, twice, and then repeating a cycle consisting of 5-minute swim and 10-minute rest until the mice became too exhausted to swim. After the mice too exhausted to swim were allowed to leave alone for 15 minutes, the blood glucose level was checked. […]. A blood glucose level was measured with time.

The nature of data set [6]: Blood ethanol level in rats, caffeine+serine administered before ethanol. The class given is in vivo, Wistar rats. Particulars: 20 mg/kg caffeine and/or 0.1 g/kg serine orally 1 h before ethanol 2 g/kg, blood 1, 2, 3 and 5 hours, vs water control. The protocol:
Four groups were prepared in total as follow. A control group of rats (n=6) was prepared by orally administering water. […] . […] Blood was taken from the cervical vein 1, 2, 3 and 5 hours after the administration. Immediately upon taking, the blood was mixed well with a solution containing 0.6N perchlorate and 0.9% NaCl, and centrifugally separated at 3000 rpm for 20 minutes to remove protein. The ethanol concentration of the supernatant was measured with a gas chromatograph manufactured by Shimazu Corporation (Eriksson C J P et al., Anal. Biochem. Vol. 125, 259-263 (1982)).

For data set [7] the following is noted: mice; Kakuda T et al. 1996; cited from earlier work.
Data set [8] can be described thus: Dissolution of serine in non-sugar coffee. To be noted: 100, 500, 1000, 1500 and 2000 mg serine in 100 ml coffee.
The conditions of data set [9]: rat, in vivo; cited from earlier work.
Data set [10] is described as follows: Blood ethanol in rats, sample administered after ethanol. Particulars: 10 mg/kg caffeine and/or 100 mg/kg serine orally 1 h after ethanol 2 g/kg, blood five hours after ethanol, vs control.
The nature of data set [11]: Blood ethanol in rats, caffeine + each of 20 amino acids. Particulars: 0.1 g/kg amino acid together with 20 mg/kg caffeine 1 h before ethanol 2 g/kg, blood two hours after ethanol.
Text: One hour after the administration of each sample, ethanol (2 g/kg body weight) was orally administered. After further two hours, blood was taken from the aorta abdominalis under anesthesia with pentobarbital (Sigma).

Turning to `Cn1c(=O)c2c(ncn2C)n(C)c1=O` [caffeine, 3,7-dihydro-1,3,7-trimethyl-1H-purine-2,6-dione, reference compound], the blood glucose level result in data set [1] was “increasing a blood glucose level”. In addition, the blood ethanol level result is “rarely changed” in data set [2]; “A slight downward tendency was observed in the caffeine administration group, but it is not significant change” in [4]; “significantly decreased 2 hours after ethanol administration; however, a significant effect was not observed in other time point” in data set [6]. The blood acetaldehyde level result in data set [2] is listed as “did not significantly change”. Also, the “mRNA expression level of SDS in liver” value in data set [3] was “metabolism of serine and tryptophan was enhanced”. In addition, in data set [5], the “blood glucose level: recovery from hypoglycemia at the time of fatigue” value is “recovered from hypoglycemia”. Moreover, the “amount needed to significantly reduce the blood ethanol level” value in data set [7] is given as 300 mg/kg body weight.

As to `N[C@@H](CO)C(=O)O` [serine], the blood ethanol level result in data set [2] was “rarely changed”; in data set [6], “slightly decreased compared to the control group; however, this change observed in the all measurement time points had not a significance”. In data set [2], the blood acetaldehyde level entry is “did not significantly change”. Besides, the “dissolution in non-sugar coffee” value in data set [8] is “easily dissolved in non-sugar coffee without any appearance problem such as precipitation and turbidity”. Moreover, the “acute half lethal dose” value in data set [9] was 14 g/kg body weight. Moreover, the “relative blood ethanol concentration” value in data set [10] is on record as “A slight downward tendency was observed in the serine single administration group compared to the control group, but it was not significant change”. For the same compound, the “relative blood ethanol level compared to the caffeine-only group (regarded as 1)” value in data set [11] is “blood ethanol reduction effect was observed”. Further, the “blood glucose level: recovery from hypoglycemia at the time of fatigue” value in [5] is given as “recovered from hypoglycemia”.

On to `N[C@@H](Cc1c[nH]c2ccccc12)C(=O)O` [tryptophan], for which the blood ethanol level result in data set [4] is “No change was observed”. Besides, in data set [11], the “relative blood ethanol level compared to the caffeine-only group (regarded as 1)” value is listed as “blood ethanol reduction effect was observed”.
